# From patent publication US8541588B2, “Sulfonamide derivatives” (Pfizer Limited, priority 2009, dated 2013)
# Where a name gives a salt, the structure may show the parent alone.
# Biological target: T1, Nav1.7 (or SCN9A) channel; HEK cells stably transfected with hSCN9A (Homo sapiens, UniProt Q15858)
# T1 construct: expressed in transfected cells
# Test: Nav1.7 block, PatchXpress 7000 automated whole-cell voltage clamp, estimated IC50 (EIC50)
# Type: cell-based
# Settings: PatchXpress platform; hSCN9A HEK cells held at V1/2 of inactivation; estimated IC50
# T1 sequence (Q15858 whole entry): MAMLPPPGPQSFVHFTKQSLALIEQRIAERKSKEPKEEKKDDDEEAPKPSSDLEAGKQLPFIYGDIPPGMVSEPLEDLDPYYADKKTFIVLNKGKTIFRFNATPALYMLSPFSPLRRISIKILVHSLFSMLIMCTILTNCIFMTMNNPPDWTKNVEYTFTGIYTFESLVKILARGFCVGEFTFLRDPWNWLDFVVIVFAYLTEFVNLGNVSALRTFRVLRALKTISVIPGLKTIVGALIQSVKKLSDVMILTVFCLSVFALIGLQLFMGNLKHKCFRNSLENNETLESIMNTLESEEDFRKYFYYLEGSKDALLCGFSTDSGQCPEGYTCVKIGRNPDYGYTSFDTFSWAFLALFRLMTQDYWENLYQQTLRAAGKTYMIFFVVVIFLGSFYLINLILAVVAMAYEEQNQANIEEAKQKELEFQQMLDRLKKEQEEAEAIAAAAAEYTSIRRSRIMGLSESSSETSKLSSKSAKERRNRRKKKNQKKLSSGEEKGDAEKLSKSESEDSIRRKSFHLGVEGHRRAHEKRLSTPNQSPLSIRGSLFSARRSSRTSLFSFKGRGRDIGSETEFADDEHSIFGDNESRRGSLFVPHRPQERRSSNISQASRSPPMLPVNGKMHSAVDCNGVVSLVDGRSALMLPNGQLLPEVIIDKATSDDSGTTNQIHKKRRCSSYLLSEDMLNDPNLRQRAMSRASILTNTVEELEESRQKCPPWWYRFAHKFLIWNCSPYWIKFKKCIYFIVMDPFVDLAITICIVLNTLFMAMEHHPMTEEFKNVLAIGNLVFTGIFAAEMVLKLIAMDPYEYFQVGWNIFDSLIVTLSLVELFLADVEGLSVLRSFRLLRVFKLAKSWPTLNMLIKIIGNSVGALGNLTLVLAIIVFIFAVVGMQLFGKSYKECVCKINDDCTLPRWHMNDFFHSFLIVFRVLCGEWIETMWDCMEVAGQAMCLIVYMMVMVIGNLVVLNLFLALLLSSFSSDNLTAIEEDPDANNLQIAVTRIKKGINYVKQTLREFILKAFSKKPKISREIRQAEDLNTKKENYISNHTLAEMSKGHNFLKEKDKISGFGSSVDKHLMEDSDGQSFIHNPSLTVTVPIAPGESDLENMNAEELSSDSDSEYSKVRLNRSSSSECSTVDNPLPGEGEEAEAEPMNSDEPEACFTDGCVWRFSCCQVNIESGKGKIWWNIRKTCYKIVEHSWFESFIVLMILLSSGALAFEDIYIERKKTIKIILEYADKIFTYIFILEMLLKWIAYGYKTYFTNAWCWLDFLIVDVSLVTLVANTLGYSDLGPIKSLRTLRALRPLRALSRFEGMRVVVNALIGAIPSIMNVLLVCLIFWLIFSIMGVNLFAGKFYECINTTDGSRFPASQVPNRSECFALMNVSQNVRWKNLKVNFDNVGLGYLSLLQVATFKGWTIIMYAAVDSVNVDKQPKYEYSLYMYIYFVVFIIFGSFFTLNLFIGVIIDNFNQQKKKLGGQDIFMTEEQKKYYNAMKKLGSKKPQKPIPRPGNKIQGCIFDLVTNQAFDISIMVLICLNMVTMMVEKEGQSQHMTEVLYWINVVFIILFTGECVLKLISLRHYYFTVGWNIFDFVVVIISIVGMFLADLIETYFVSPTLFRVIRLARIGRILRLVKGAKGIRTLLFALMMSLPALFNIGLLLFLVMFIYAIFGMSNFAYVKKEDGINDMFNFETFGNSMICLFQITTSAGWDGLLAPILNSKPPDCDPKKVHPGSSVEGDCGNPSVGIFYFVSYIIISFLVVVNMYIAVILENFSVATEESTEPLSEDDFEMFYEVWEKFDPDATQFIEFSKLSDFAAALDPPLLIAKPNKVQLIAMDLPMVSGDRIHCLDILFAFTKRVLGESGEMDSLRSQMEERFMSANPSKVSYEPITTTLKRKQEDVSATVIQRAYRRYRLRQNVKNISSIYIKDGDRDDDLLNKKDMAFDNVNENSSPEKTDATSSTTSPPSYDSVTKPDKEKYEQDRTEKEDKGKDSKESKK
row,IC50 [nM],Structure (SMILES)
1,30,"N#Cc1cc(S(=O)(=O)Nc2nccs2)ccc1Oc1ccc(Cl)cc1-c1ccccc1 [Example 156, 4-[(5-chlorobiphenyl-2-yl)oxy]-3-cyano-N-1,3-thiazol-2-ylbenzenesulfonamide]"
2,2660,"Cc1cn(Cc2ccccc2)nc1Oc1ccc(S(=O)(=O)Nc2ncns2)cc1C#N [Example 66, 4-[(1-benzyl-4-methyl-1H-pyrazol-3-yl)oxy]-3-cyano-N-1,2,4-thiadiazol-5-ylbenzenesulfonamide]"
3,1510,"O=S(=O)(Nc1ncc(Cl)s1)c1ccc(Oc2ccccc2-c2ccccc2)c(F)c1 [Example 147, 4-(Biphenyl-2-yloxy)-N-(5-chloro-thiazol-2-yl)-3-fluoro-benzenesulfonamide]"
4,1710,"Cc1cc(OC(C)C)ccc1-c1ccccc1Oc1ccc(S(=O)(=O)Nc2ncns2)cc1C#N [Example 4, 3-cyano-4-[(4′-isopropoxy-2′-methylbiphenyl-2-yl)oxy]-N-1,2,4-thiadiazol-5-ylbenzenesulfonamide]"
5,1600,"O=S(=O)(Nc1nccs1)c1ccc(Oc2ccc(F)cc2-c2ccn[nH]2)cc1F [Example 213, 2-fluoro-4-(4-fluoro-2-(1H-pyrazol-5-yl)phenoxy)-N-(thiazol-2-yl)benzenesulfonamide]"
6,7710,"N#Cc1cc(S(=O)(=O)Nc2nccs2)ccc1Oc1cc(-c2ccccc2)nn1CC(F)(F)F [Example 190, 3-cyano-4-[5-phenyl-2-(2,2,2-trifluoro-ethyl)-2H-pyrazol-3-yloxy]-N-thiazol-2-yl-benzenesulfonamide]"

# Same assay, conditions: estimated IC50; hSCN9A HEK cells, PatchXpress platform; Examples 283-814
row,Structure (SMILES),IC50 [nM]
1,"Cn1nccc1-c1ccc(Oc2ccc(S(=O)(=O)Nc3nccs3)cc2C#N)cc1 [Example 436, 3-cyano-4-[4-(1-methyl-1H-pyrazol-5-yl)phenoxy]-N-1,3-thiazol-2-ylbenzenesulfonamide]",1300
2,"CN(C)C(=O)c1cnn(-c2ccc(Oc3ccc(S(=O)(=O)Nc4nccs4)cc3C#N)cc2)c1 [Example 375, 1-(4-{2-cyano-4-[(1,3-thiazol-2-ylamino)sulfonyl]phenoxy}phenyl)-N,N-dimethyl-1H-pyrazole-4-carboxamide]",>1000
3,"Cn1cnc(-c2cc(Cl)ccc2Oc2ccc(S(=O)(=O)Nc3nccs3)cc2C#N)n1 [Example 325, 4-[4-chloro-2-(1-methyl-1H-1,2,4-triazol-3-yl)phenoxy]-3-cyano-N-1,3-thiazol-2-ylbenzenesulfonamide]",>300
4,"N#Cc1cnc(NS(=O)(=O)c2ccc(Oc3ccccc3-c3ccccc3)c(C#N)c2)nc1 [Example 432, 4-(biphenyl-2-yloxy)-3-cyano-N-(5-cyanopyrimidin-2-yl)benzenesulfonamide]",>10000
5,"CC(C)c1cc(-c2cc(C(F)(F)F)nn2C)ccc1Oc1ccc(S(=O)(=O)Nc2nccs2)cc1C#N [Example 354, 3-cyano-4-{2-isopropyl-4-[1-methyl-3-(trifluoromethyl)-1H-pyrazol-5-yl]phenoxy}-N-1,3-thiazol-2-ylbenzenesulfonamide]",180
6,"N#Cc1cc(S(=O)(=O)Nc2ncns2)ccc1Oc1ccc(-n2cc(COC(=O)C(F)(F)F)cn2)cc1 [Example 287, [1-(4-{2-cyano-4-[(1,2,4-thiadiazol-5-ylamino)sulfonyl]phenoxy}phenyl)-1H-pyrazol-4-yl]methyl trifluoroacetate]",>1000
7,"Cn1nc(C(F)(F)F)cc1-c1ccc(Oc2cc(F)c(S(=O)(=O)Nc3cscn3)cc2Cl)c(C#N)c1 [Example 524, 5-chloro-4-{2-cyano-4-[1-methyl-3-(trifluoromethyl)-1H-pyrazol-5-yl]phenoxy}-2-fluoro-N-1,3-thiazol-4-ylbenzenesulfonamide]",580
8,"Nc1cccc(-c2cc(Cl)ccc2Oc2cc(F)c(S(=O)(=O)Nc3ncns3)cc2Cl)n1 [Example 403, 4-[2-(6-aminopyridin-2-yl)-4-chlorophenoxy]-5-chloro-2-fluoro-N-1,2,4-thiadiazol-5-ylbenzenesulfonamide]",4.5
9,"Cn1nccc1-c1cc(F)ccc1Oc1ccc(S(=O)(=O)Nc2ccncn2)cc1F [Example 528, 3-fluoro-4-[4-fluoro-2-(1-methyl-1H-pyrazol-5-yl)phenoxy]-N-pyrimidin-4-ylbenzenesulfonamide]",740

# The remaining lines, values ahead:
row,IC50 [nM],Structure (SMILES)
1,140,"Cn1nccc1-c1ccc(C(F)(F)F)cc1Oc1ccc(S(=O)(=O)Nc2nccs2)cc1C#N [Example 699, 3-cyano-4-[2-(1-methyl-1H-pyrazol-5-yl)-5-(trifluoromethyl)phenoxy]-N-1,3-thiazol-2-ylbenzenesulfonamide]"
2,14,"Nc1cccc(-c2cc(C(F)(F)F)ccc2Oc2cc(F)c(S(=O)(=O)Nc3ncns3)cc2F)n1 [Example 555, 4-[2-(6-aminopyridin-2-yl)-4-(trifluoromethyl)phenoxy]-2,5-difluoro-N-1,2,4-thiadiazol-5-ylbenzenesulfonamide]"
3,78,"O=S(=O)(Nc1ccncn1)c1cc(Cl)c(Oc2ccc(Cl)cc2C2CCNCC2)cc1F [Example 560, 5-chloro-4-(4-chloro-2-piperidin-4-ylphenoxy)-2-fluoro-N-pyrimidin-4-ylbenzenesulfonamide]"
4,88,"CC(C)(C)n1nccc1-c1cc(Cl)ccc1Oc1ccc(S(=O)(=O)Nc2ncns2)cc1C#N [Example 775, 4-[2-(1-tert-butyl-1H-pyrazol-5-yl)-4-chlorophenoxy]-3-cyano-N-1,2,4-thiadiazol-5-ylbenzenesulfonamide]"

# Same assay, conditions: estimated IC50; hSCN9A HEK cells, PatchXpress platform; Examples 815-1040
row,IC50 [nM],Structure (SMILES)
1,40,"N#Cc1cc(S(=O)(=O)Nc2ncns2)ccc1Oc1ccc(Cl)cc1-c1ccnn1C1CCOC1 (centres unmarked) [Example 882, 4-{4-chloro-2-[1-(tetrahydrofuran-3-yl)-1H-pyrazol-5-yl]phenoxy}-3-cyano-N-1,2,4-thiadiazol-5-ylbenzenesulfonamide]"
2,6200,"CCOc1nnc(NS(=O)(=O)c2ccc(Oc3ccc(Cl)cc3-c3ccnn3C)c(C#N)c2)s1 [Example 886, 4-[4-chloro-2-(1-methyl-1H-pyrazol-5-yl)phenoxy]-3-cyano-N-(5-ethoxy-1,3,4-thiadiazol-2-yl)benzenesulfonamide]"
3,22,"Nc1n[nH]cc1-c1cc(Cl)ccc1Oc1cc(F)c(S(=O)(=O)Nc2ncccn2)cc1Cl [Example 1019, 4-[2-(3-amino-1H-pyrazol-4-yl)-4-chlorophenoxy]-5-chloro-2-fluoro-N-pyrimidin-2-ylbenzenesulfonamide]"
4,24,"N#Cc1cc(S(=O)(=O)Nc2nncs2)ccc1Oc1ccc(Cl)cc1-c1ccnc(N2CCC2)c1 [Example 919, 4-[2-(2-azetidin-1-ylpyridin-4-yl)-4-chlorophenoxy]-3-cyano-N-1,3,4-thiadiazol-2-ylbenzenesulfonamide]"
5,>10000,"Cc1cnc(NS(=O)(=O)c2ccc(Oc3ccc(Cl)cc3-c3ccnn3C)c(C#N)c2)cn1 [Example 892, 4-[4-chloro-2-(1-methyl-1H-pyrazol-5-yl)phenoxy]-3-cyano-N-(5-methylpyrazin-2-yl)benzenesulfonamide]"
6,5.8,"O=S(=O)(Nc1ncns1)c1cc(F)c(Oc2ccc(OC(F)(F)F)cc2-c2ccnnc2)cc1F [Example 897, 2,5-difluoro-4-[2-pyridazin-4-yl-4-(trifluoromethoxy)phenoxy]-N-1,2,4-thiadiazol-5-ylbenzenesulfonamide]"
7,99,"O=S(=O)(Nc1ncccn1)c1cc(Cl)c(Oc2ccc(OC(F)(F)F)cc2-c2ccnnc2)cc1F [Example 945, 5-chloro-2-fluoro-4-[2-pyridazin-4-yl-4-(trifluoromethoxy)phenoxy]-N-pyrimidin-2-ylbenzenesulfonamide]"
